Source: patent publication US20210145852A1, “Combination Therapies for Treating Muscular Dystrophy” (Sarepta Therapeutics, Inc., priority 2017, published 2021)
“Also recorded” adds a separate entry of the source. Where two headings read alike, the source gives them in different places. {TEG} = triethylene glycol tail moiety

Legend:
[1] = phase I clinical program, adults, placebo-controlled studies; cited from earlier work
[2] = tested on: NF-κB; conditions: cited from earlier work
[3] = tested on: Mdx mice; conditions: cited from earlier work; for inflammation and fibrosis: mdx mice (Hammers et al.); for phenotype: mdx mouse, long-term treatment; for diaphragm function: mouse DMD model (mdx)
[4] = tested on: mouse dystrophin exon 23 pre-mRNA; test: RT-PCR analysis for exon 23 skipping in Mdx mice; type: in vivo; conditions: muscle of quadriceps, diaphragm and heart of Mdx mice; 4 weeks treatment
Excerpt: (§1) Wild-type (WT) (C57BL/10ScSn/J) and Mdx (C57BL/10ScSn-Dmd^mdx/J) mice were used to test the efficacy of the M23D PMO (AVI-4225) in combination with CAT-1004. 5-week old mice were acquired from Jackson Labs and acclimated for one-week. The treatment duration was 4 weeks and began when the mice were 6 weeks of age. Mice were divided into the following five treatment groups, each with N=12: (1) wild-type mice treated with saline, (2) Mdx mice treated with saline, (3) Mdx mice treated with CAT-1004, (4) Mdx mice treated with the M23D PMO, and (5) Mdx mice treated with the M23D PMO in combination with CAT-1004. Mice were dosed weekly with M23D PMO (AVI-4225) at 40 mg/kg by IV injection and treated with CAT-1004 (1%) in their diet. All non-CAT-1004 animals were fed a normal chow control diet and all non-M23D PMO animals were given weekly IV injections of saline. Food consumption was closely monitored and the feed was changed twice per week. Mice were sacrificed at 10 weeks of age (4 weeks post-first dose). The quadriceps, diaphragm, and heart were harvested from each of the respective treatment groups.
For exon skipping analysis, quadriceps, diaphragm, and heart tissue samples were homogenized. […] Exon 23 skipping was determined by Caliper imaging. […] Percentage of skipping was determined using the formula: % skipping=skipped molarity/(unskipped+skipped molarity)×100%. […]

[5] = tested on: Mdx mice; test: Histology (H&E and picrosirius red staining) of quadriceps, PMO and CAT-1004 efficacy study in Mdx mice; type: in vivo, mouse; conditions: 4 weeks treatment, M23D PMO 40 mg/kg IV weekly or CAT-1004 1% in diet, compared to Mdx mice treated with saline
Excerpt: as §1, with “All non-CAT-1004 animals were fed a normal chow control diet and all non-M23D PMO animals were given weekly IV injections of saline.” left out, “Mice were sacrificed at 10 weeks of age (4 weeks post-first dose). The quadriceps, diaphragm, and heart were harvested from each of the respective treatment groups.” left out
To assess the effectiveness of a combination treatment of an exon skipping antisense oligonucleotide and an NF-Kb inhibitor in Duchenne muscular dystrophy, M23D PMO and CAT-1004 were utilized in the Mdx mouse model. The effect on inflammation and fibrosis was determined by analyzing samples of muscle taken from the quadriceps, of (1) wild-type mice treated with saline, (2) mdx mice treated with saline, (3) mdx mice treated with CAT-1004, (4) mdx mice treated with the M23D PMO, and (5) mdx mice treated with the M23D PMO in combination with CAT-1004. […]

[6] = tested on: NF-κB p65; conditions: cited from earlier work
[7] = tested on: golden retriever muscular dystrophy (GRMD) dog; conditions: cited from earlier work; for phenotype: GRMD dog, long-term treatment; for diaphragm function: dog DMD model
[8] = tested on: cNF-κB; conditions: in vitro; cited from earlier work
[9] = tested on: dystrophin protein; test: Western blot analysis of dystrophin protein levels in Mdx mice; type: in vivo, mouse; conditions: quadriceps, diaphragm and heart of Mdx mice, combination compared to M23D PMO monotherapy
Excerpt: as §1
Dystrophin protein was analyzed by Western blot analysis, and immunohistochemistry. […] Total protein concentration of the protein lysates were measured using Pierce™ BCA Protein Assay Kit (ThermoFisher Scientific catalog #23225). […]

[10] = tested on: ryanodine receptor; conditions: patient cells; cited from earlier work
[11] = tested on: ryanodine receptor; conditions: mouse model of DMD; cited from earlier work
[12] = cited from earlier work
[13] = tested on: dystrophin; test: Immunohistochemical analysis of dystrophin expression in quadriceps of Mdx mice; type: in vivo, mouse; conditions: compared to Mdx mice treated with saline or CAT-1004 monotherapy
Excerpt: as §1
For immunohistochemistry, frozen quadriceps sections were serially cut and mounted on slides using a cryostat. Sections were rehydrated in PBS and then blocked with Mouse on Mouse (MOM) blocking buffer for 1 hour at room temperature. […]

[14] = tested on: human DMD transcript; conditions: hDMD mouse model; cited from earlier work
[15] = tested on: exon 51 of dystrophin pre-mRNA; conditions: normal human skeletal muscle cells or muscle cells from DMD patients; RT-PCR and Western blot; cited from earlier work
[16] = tested on: juvenile rats; conditions: T cell-dependent antibody responses, immunophenotyping of peripheral blood T- and B-cell subpopulations; cited from earlier work

CC/C=C\C/C=C\C/C=C\C/C=C\C/C=C\C/C=C\CCC(=O)NCCNC(=O)c1ccccc1O [CAT-1004, N-(2-[(4Z,7Z,10Z,13Z,16Z,19Z)-docosa-4,7,10,13,16,19-hexaenamido]ethyl)-2-hydroxybenzamide]
safety and tolerability [1]: safe, well tolerated
levels of the p65 subunit of NF-κB ([2]; healthy adult humans, compared to placebo or salicylate and omega-3 DHA as separate molecules): lowers levels of the p65 subunit of NF-κB
biomarkers of inflammation in whole blood ([2]; humans): decrease of biomarkers of inflammation
activated NF-κB pathways ([2]; phase I clinical program in adults, listed as Edasalonexent): inhibited activated NF-kB pathways; also recorded: inhibited activated NF-κB pathways
inflammation and fibrosis [3]: reduced inflammation and fibrosis
cumulative run distance ([3]; mdx mice, long-term studies): increased cumulative run distance
exercise endurance ([3]; mdx mice): increased exercise endurance
muscle degeneration and inflammation ([3]; mdx mice): reduce muscle degeneration and inflammation
muscle function ([3]; mdx mice): preserve muscle function
muscle regeneration ([3]; mdx mice): enhance muscle regeneration
phenotype [3]: improves the phenotype
diaphragm function [3]: improved diaphragm function
exon 23 skipping [4]: neither exon skipping nor dystrophin production were observed
inflammation and fibrosis in quadriceps [5]: reduction of inflammation and fibrosis
NF-κB activity ([6]; dog model of DMD): decreases NF-κB activity
binding of the p65 subunit to DNA ([6]; dog model of DMD): reduced binding of the p65 subunit to DNA
secretion of the inflammatory mediator TNF-α ([6]; dog model of DMD): reduced secretion of the inflammatory mediator TNF-α
NF-κB p65-dependent inflammatory responses and downstream proinflammatory genes modulated by p65 ([6]; golden retriever DMD model): significantly inhibit
phenotype [7]: improves the phenotype
diaphragm function [7]: improved diaphragm function
cNF-κB activation [8]: inhibit cNF-κB activation in vitro
dystrophin production [9]: neither exon skipping nor dystrophin production were observed

CC/C=C\C/C=C\C/C=C\C/C=C\C/C=C\CCCC(=O)NCCNC(=O)c1ccccc1O [CAT-1041]
inflammation and fibrosis [3]: reduced inflammation and fibrosis
muscle fibrosis ([3]; mdx mice, long-term studies): reduces muscle fibrosis
skeletal muscle weight ([3]; mdx mice, long-term studies): increases skeletal muscle weight
exercise endurance ([3]; mdx mice): increased exercise endurance
muscle function ([3]; mdx mice): preserves muscle function
phenotype [3]: improves the phenotype
diaphragm function [3]: improved diaphragm function
phenotype [7]: improves the phenotype
diaphragm function [7]: improved diaphragm function
cNF-κB activation [8]: inhibit cNF-κB activation in vitro

O=C1CN(/N=C/c2ccc(-c3ccc([N+](=O)[O-])cc3)o2)C(O)=N1 [dantrolene]
antisense-mediated exon skipping [10]: enhance antisense-mediated exon skipping
antisense-mediated exon skipping [11]: enhance antisense-mediated exon skipping

G-2-beta-cyclodextrin
solubility in water [12]: 147 % (w/v)

M23D PMO: PMO hybridizing to mouse dystrophin exon 23 pre-mRNA, TEG tail at 5′ end, sequence GGCCAAACCTCGGCTTACCTGAAAT (SEQ ID NO: 30) (antisense GGCCAAACCTCGGCTTACCTGAAAT; all phosphorodiamidate morpholino (PMO), 5' {TEG})
exon 23 skipping [4]: Exon skipping was observed
inflammation and fibrosis in quadriceps [5]: reduction of inflammation and fibrosis
dystrophin expression (immunohistochemistry) [13]: increase in dystrophin expression

eteplirsen
exon 51 skipping in vivo [14]: confirmed in vivo
exon 51 skipping [15]: potent inducer of exon 51 skipping
effect on the immune response [16]: no adverse effect on the immune response

triacetyl-beta-cyclodextrin
solubility in water (in words) [12]: insoluble
